{
  "source": "patent US20260218109A1",
  "about": "“CULTURING DEVICE AND METHOD” (METHANE […] LIMITED, priority 2023, published 2026)",
  "test_system": "culture from a ruminant animal foregut",
  "experiment": "administration of feed material and methanogenesis inhibitor to culturing device liquor, recording CH4 and dH2 (FIG. 11)",
  "type": "cell-based, sheep",
  "settings": "final CHBr3 concentration 6 μM in 1.5 L liquor",
  "excerpt": "FIG. 11 comprises a graph 1101 of the measured temperature on the upper y-axis 1102 shown in degrees Celsius (° C.), the measured CH4 on the middle y-axis 1103 in percentage (%), and the measured dH2 on the lower y-axis 1104 in milli Volts (mV) versus time on the x-axis 1105 measured in hours.\nThe plot 1106 of CH4 is the output of the SGX methane sensor as described in FIG. 8 800 and the accompanying text.\nThe plot 1006 of dH2 is the voltage generated by a hydrogen fuel cell as described in FIG. 7 700 and the accompanying text.\nThe culturing device vessel was inoculated with a culture sourced from a freshly slaughtered grass-fed ewe hogget sheep of mixed breed. After resection of the reticulorumen organ, 2.5 L the rumen content was determined to have a pH Of 6.0 and then transferred to a 5 L jug and mixed with 2.5 L of rainwater. A 0.7 L aliquot of this mixture was used to inoculate the vessel of a culturing device containing 0.8 L of rainwater pre-heated to the culturing device setpoint temperature of about 39° C.\nAfter inoculation, the culturing device was prescribed the movement algorithm described in FIG. 10 1000 above.\nAs described herein, the vessel of the present examples has an internal volume of about 2.0 L and is typically operated with 1.5 L of liquor and 0.5 L of headspace. […]",
  "data": [
    {"smiles": "BrC(Br)Br", "note": "[CHBr3]", "values": [
      {"measurement": "measured CH4 (plot 1106), effect of added CHBr3", "setting": "given with daily feed on, 39° C.", "result": "decreasing CH4"},
      {"measurement": "measured dH2 (plot 1107, hydrogen fuel cell voltage)", "setting": "then ceased, dH2 anticipated to increase when methanogenesis is reduced", "result": "mirrored in the plot 1107 of the dH2"}
    ]}
  ]
}
